Data taken from patent US8216800B2, “Substrates for detecting peptidase activity and methods using the substrates” (Biomerieux, priority 2007, dated 2012).

What was measured:
Assay in all cases: Peptidase activity detection on Columbia agar containing substrate
Format in all cases: cell-based
[1] = test system: Burkholderia cepacia 1222; design: key to fluorescence intensity: − = no fluorescence detected; e = trace of fluorescence; +/− = weak fluorescence; + = medium fluorescence; ++ = strong fluorescence; NG = No Growth; conditions: for fluorescence produced: B. cepacia strain; for fluorescence intensity: Burkholderia cepacia 1222, substrate 100 mg/l, 24 hours at 37° C., UV 360-365 nm
Procedure: (§1) 40 mg of each substrate are dissolved in 4 ml of dimethylformamide (DMF). This solution is completely taken up in 400 ml of Columbia agar autoclaved beforehand and kept molten at 50° C. The final concentration for each substrate is therefore 100 mg/l. Each of the media is distributed into 90 mm Petri dishes in a proportion of 20 ml per dish.
(§2) 18 microorganism strains derived from collections and belonging to various species of bacteria and of yeasts are inoculated onto these media by semi-quantitative isolation of 10 μl of a suspension at 0.5 McFarland diluted to 1/20. The media are incubated for 24 hours at 37° C., and then the colonies formed are examined visually under UV illumination at 360-365 nm.

[2] = test system: Pseudomonas aeruginosa NCTC 10662; design: key to fluorescence intensity: − = no fluorescence detected; e = trace of fluorescence; +/− = weak fluorescence; + = medium fluorescence; ++ = strong fluorescence; NG = No Growth; conditions: for fluorescence intensity: Pseudomonas aeruginosa NCTC 10662, substrate 100 mg/l, 24 hours at 37° C., UV 360-365 nm; for fluorescence produced: Pseudomonas aeruginosa strain
Procedure: as §1, §2

[3] = test system: Staphylococcus aureus NCTC 11939; design: key: − = no fluorescence detected; e = trace of fluorescence; +/− = weak fluorescence; + = medium fluorescence; ++ = strong fluorescence; NG = No Growth; conditions: Staphylococcus aureus (MRSA) NCTC 11939; substrate 100 mg/l, 24 hours at 37° C., UV 360-365 nm
Procedure: as §1, §2

[4] = test system: Staphylococcus epidermidis NCTC 11047; design: key: − = no fluorescence detected; e = trace of fluorescence; +/− = weak fluorescence; + = medium fluorescence; ++ = strong fluorescence; NG = No Growth; conditions: substrate 100 mg/l, 24 hours at 37° C., UV 360-365 nm
Procedure: as §1, §2

[5] = test system: Providencia rettgeri NCTC 7475; design: key: − = no fluorescence detected; e = trace of fluorescence; +/− = weak fluorescence; + = medium fluorescence; ++ = strong fluorescence; NG = No Growth; conditions: substrate 100 mg/l, 24 hours at 37° C., UV 360-365 nm
Procedure: as §1, §2

[6] = test system: Candida albicans ATCC 90028; design: key: − = no fluorescence detected; e = trace of fluorescence; +/− = weak fluorescence; + = medium fluorescence; ++ = strong fluorescence; NG = No Growth; conditions: substrate 100 mg/l, 24 hours at 37° C., UV 360-365 nm
Procedure: as §1, §2

[7] = test system: Enterobacter cloacae NCTC 11936; design: key: − = no fluorescence detected; e = trace of fluorescence; +/− = weak fluorescence; + = medium fluorescence; ++ = strong fluorescence; NG = No Growth; conditions: substrate 100 mg/l, 24 hours at 37° C., UV 360-365 nm
Procedure: as §1, §2

[8] = test system: Escherichia coli NCTC 10418; design: key: − = no fluorescence detected; e = trace of fluorescence; +/− = weak fluorescence; + = medium fluorescence; ++ = strong fluorescence; NG = No Growth; conditions: substrate 100 mg/l, 24 hours at 37° C., UV 360-365 nm
Procedure: as §1, §2

[9] = test system: Serratia marcescens NCTC 10211; design: key: − = no fluorescence detected; e = trace of fluorescence; +/− = weak fluorescence; + = medium fluorescence; ++ = strong fluorescence; NG = No Growth; conditions: substrate 100 mg/l, 24 hours at 37° C., UV 360-365 nm
Procedure: as §1, §2

[10] = test system: Candida glabrata NCPF3943; design: key: − = no fluorescence detected; e = trace of fluorescence; +/− = weak fluorescence; + = medium fluorescence; ++ = strong fluorescence; NG = No Growth; conditions: substrate 100 mg/l, 24 hours at 37° C., UV 360-365 nm
Procedure: as §1, §2

[11] = test system: Listeria monocytogenes NCTC 11994; design: key: − = no fluorescence detected; e = trace of fluorescence; +/− = weak fluorescence; + = medium fluorescence; ++ = strong fluorescence; NG = No Growth; conditions: substrate 100 mg/l, 24 hours at 37° C., UV 360-365 nm
Procedure: as §1, §2

[12] = test system: Yersinia enterocolitica NCTC 11176; design: key: − = no fluorescence detected; e = trace of fluorescence; +/− = weak fluorescence; + = medium fluorescence; ++ = strong fluorescence; NG = No Growth; conditions: substrate 100 mg/l, 24 hours at 37° C., UV 360-365 nm
Procedure: as §1, §2

[13] = test system: Bacillus subtilis NCTC 9372; design: key: − = no fluorescence detected; e = trace of fluorescence; +/− = weak fluorescence; + = medium fluorescence; ++ = strong fluorescence; NG = No Growth; conditions: substrate 100 mg/l, 24 hours at 37° C., UV 360-365 nm
Procedure: as §1, §2

[14] = test system: Salmonella Typhimurium NCTC 74; design: key: − = no fluorescence detected; e = trace of fluorescence; +/− = weak fluorescence; + = medium fluorescence; ++ = strong fluorescence; NG = No Growth; conditions: substrate 100 mg/l, 24 hours at 37° C., UV 360-365 nm
Procedure: as §1, §2

[15] = test system: Enterococcus faecalis NCTC 775; design: key: − = no fluorescence detected; e = trace of fluorescence; +/− = weak fluorescence; + = medium fluorescence; ++ = strong fluorescence; NG = No Growth; conditions: substrate 100 mg/l, 24 hours at 37° C., UV 360-365 nm
Procedure: as §1, §2

[16] = test system: Staphylococcus aureus NCTC 6571; design: key: − = no fluorescence detected; e = trace of fluorescence; +/− = weak fluorescence; + = medium fluorescence; ++ = strong fluorescence; NG = No Growth; conditions: substrate 100 mg/l, 24 hours at 37° C., UV 360-365 nm
Procedure: as §1, §2

[17] = test system: Streptococcus pyogenes NCTC 8306; design: key: − = no fluorescence detected; e = trace of fluorescence; +/− = weak fluorescence; + = medium fluorescence; ++ = strong fluorescence; NG = No Growth; conditions: substrate 100 mg/l, 24 hours at 37° C., UV 360-365 nm
Procedure: as §1, §2

[18] = test system: Enterococcus faecium NCTC 11047; design: key: − = no fluorescence detected; e = trace of fluorescence; +/− = weak fluorescence; + = medium fluorescence; ++ = strong fluorescence; NG = No Growth; conditions: Enterococcus faecium NCTC 11047 (Table 2); substrate 100 mg/l, 24 hours at 37° C., UV 360-365 nm
Procedure: as §1, §2

[19] = test system: Staphylococcus aureus strains; conditions: the two Staphylococcus aureus strains
Procedure: as §1, §2

[20] = test system: Citrobacter freundii 46262 (wild); design: key: − = no fluorescence detected; e = trace of fluorescence; +/− = weak fluorescence; + = medium fluorescence; ++ = strong fluorescence; NG = No Growth; conditions: substrate 100 mg/l, 24 hours at 37° C., UV 360-365 nm
Procedure: as §1, §2

[21] = test system: Morganella morganii 462403 (wild); design: key: − = no fluorescence detected; e = trace of fluorescence; +/− = weak fluorescence; + = medium fluorescence; ++ = strong fluorescence; NG = No Growth; conditions: substrate 100 mg/l, 24 hours at 37° C., UV 360-365 nm
Procedure: as §1, §2

[22] = test system: Enterococcus faecium NCTC 7171; design: key: − = no fluorescence detected; e = trace of fluorescence; +/− = weak fluorescence; + = medium fluorescence; ++ = strong fluorescence; NG = No Growth; conditions: Enterococcus faecium NCTC 7171 (Table 3); substrate 100 mg/l, 24 hours at 37° C., UV 360-365 nm
Procedure: as §1, §2

| Compound | fluorescence intensity [1] | fluorescence intensity [2] | fluorescence intensity [3] | fluorescence intensity [4] | fluorescence intensity [5] | fluorescence intensity [6] | fluorescence intensity [7] | fluorescence intensity [8] | fluorescence intensity [9] | fluorescence intensity [10] | fluorescence intensity [11] | fluorescence intensity [12] | fluorescence intensity [13] | fluorescence intensity [14] | fluorescence intensity [15] | fluorescence intensity [16] | fluorescence intensity [17] | fluorescence intensity [18] | other results |
| --- | --- | --- | --- | --- | --- | --- | --- | --- | --- | --- | --- | --- | --- | --- | --- | --- | --- | --- | --- |
| NCCC(=O)Nc1ccccc1-c1nc2ccccc2o1 [Substrate 2] | + | + | − | − | +/− | − | + | + | + | − | ε | +/− | NG | − | +/− | − | NG | +/− | fluorescence produced [1]: green fluorescence |
| NCC(=O)Nc1ccccc1-c1nc2ccccc2o1 [Substrate 3] | + | +/− | + | NG | ++ | NG | ++ | ++ | ++ | NG | +/− | +/− | +/− | − | − | + | NG | NG | fluorescence produced [1]: medium blue fluorescence |
| C[C@H](N)C(=O)Nc1ccccc1-c1nc2cc(Cl)ccc2o1 [Substrate 4] | − | +/− | − | − | + | − | + | NG^2 | ++ | − | − | + | NG | NG | +/− | − | − | − | fluorescence produced [2]: weak violet fluorescence; fluorescence produced [19]: no fluorescence was detected |
| COc1cc(NC(=O)CCN)c(-c2nc3ccccc3o2)cc1OC [Substrate 11] | + | +/− | − | − | + | − | + | + | + | − | +/− | +/− | − | + | +/− | + | − | +/− |  |
| C[C@H](N)C(=O)Nc1ccccc1-c1nc2ccccc2n1CCc1ccccc1 [Substrate 14] | − | − | − | − | − | − | +/− | − | +/− | − | − | − | − | − | − | − | − |  | fluorescence intensity [20]: −; fluorescence intensity [21]: −; fluorescence intensity [22]: − |
| NCCC(=O)Nc1ccccc1-c1nc2ccccc2s1 [Substrate 18] | NG | ++ | NG | NG | NG | NG | NG | ++ | ++ | NG | NG | NG | NG | NG | NG | NG | NG | NG |  |
| C[C@H](N)C(=O)Nc1ccc(Cl)cc1-c1nc2ccccc2s1 [Substrate 19] | − | − | − | NG | + | NG | + | + | − | NG | − |  | − | +/− | − | − | NG | − | fluorescence produced [2]: negative |
